Patent US9358272B2, “Multicomponent compositions and their uses” (THE ADMINISTRATORS OF THE TULANE EDUCATIONAL FUND, priority 2011, dated 2016)
“Also recorded” adds a separate entry of the source.

Experiments:
[1] = tested on: pancreatic carcinoid BON cells; experiment: VPA-induced cell morphological change, BON cells; format: cell-based, Human
Text: (§1) The cancer cells were inspected and photographed under an inverted light microscope at 10× magnification.

[2] = tested on: hepatoma HTB-52 cells; experiment: VPA-induced cell morphological change, HTB-52 cells; format: cell-based
Text: as §1

[3] = tested on: ovarian cancer OVCAR8 cells; experiment: Cell proliferation assay (MTT), OVCAR8 cells; format: cell-based, Human; conditions: single agents and combinations
Experimental: Cell Proliferation Assay (MTT)
The cell proliferation assay was performed as described previously in Sun et al., Bioorg Med Chem Lett, 2004, Vol. 14, pp. 2041-2046. Briefly, 50 μl aliquots of medium with different concentrations of compounds were added to 96-well plates. All compound concentrations were tested in triplicate. Another 50 μl of the cell stock (1×10^5 cells/ml of media) was dispensed into each test well and the plates were incubated at 37° C. in a CO2 incubator for 3 days. Following the incubation period, 15 μl of the dye solution was added to each well and the plates were then incubated at 37° C. for 4 hours, followed by the addition of 100 μl per well of the solubilization solution. The plates were incubated at 37° C. until the contents in each well became a uniform-colored solution. The absorbance was measured and recorded at 570 nm by a Victor Plate Reader.
The cell proliferation assay (Promega, Madison, Wis.) was performed as described in Sun et al., Bioorg Med Chem Lett, 2004, Vol. 14, pp. 2041-2046. The absorbance was measured and recorded at 570 nm by a Victor Plate Reader (PerkinElmer, Boston, Mass.).

[4] = tested on: prostate cancer DU-145 cells; experiment: Cell proliferation assay (MTT), DU-145 cells; format: cell-based; conditions: single agents and combinations
Experimental: (§2) Cell Proliferation Assay (MTT) The cell proliferation assay (Promega, Madison, Wis.) was performed as described in Sun et al., Bioorg Med Chem Lett, 2004, Vol. 14, pp. 2041-2046. The absorbance was measured and recorded at 570 nm by a Victor Plate Reader (PerkinElmer, Boston, Mass.).

[5] = tested on: Jurkat cells; experiment: Cell proliferation assay (MTT), Jurkat cells; format: cell-based
Experimental: as §2

[6] = tested on: gene expression in MTC TT cells; experiment: RT-PCR / real-time PCR gene expression, TT cells; format: cell-based
Experimental: (§3) RT-PCR, Real-Time PCR RT-PCR was performed on total RNA that was isolated from tumor cells as described in the protocol (Invitrogen, Carlsbad, Calif.). All primers for SST, BN, and PACAP receptors were obtained from previously published reports, such as Sun et al. 2011. The PCR amplification is regularly 35 cycles, with more or less cycles due to the difference in RNA abundance of these investigated genes. Primers used for real-time PCR analyses were identical to those described above. Real-time PCR assays were performed as described in Sun et al 2011. β-actin was used as the internal control and results were calculated by applying 2^−ΔΔCT methods as described above.

[7] = tested on: gene expression in hepatoma HTB-52 cells; experiment: RT-PCR / real-time PCR gene expression, HTB-52 cells; format: cell-based
Experimental: as §3

[8] = tested on: T-ALL HPB-ALL cells; experiment: Cell proliferation assay (MTT), HPB-ALL cells; format: cell-based, Human
Experimental: as §2

[9] = tested on: gene expression in SCLC DMS-53 cells; experiment: RT-PCR / real-time PCR gene expression, DMS-53 cells; format: cell-based
Experimental: as §3

[10] = tested on: lung cancer A549 cells; experiment: VPA-induced cell morphological change, A549 cells; format: cell-based
Text: as §1

[11] = tested on: ovarian cancer NCI/ADR-RES cells; experiment: Cell proliferation assay (MTT), NCI/ADR-RES cells; format: cell-based
Experimental: as §2

[12] = tested on: osteosarcoma U2OS cells; experiment: Cell proliferation assay (MTT), U2OS cells; format: cell-based, Human
Experimental: as §2

[13] = tested on: Leukemia MOLT-4 cells; experiment: Cell proliferation assay (MTT), MOLT-4 cells; format: cell-based; conditions: single agents and combinations
Experimental: as §2

[14] = tested on: pancreatic carcinoid BON cells; experiment: Cell proliferation assay (MTT), BON cells; format: cell-based, Human; conditions: single agents and combinations, 2.5 mM VPA or 10 uM SBHA in FIGS. 20, 23
Experimental: Briefly, fifty μl of medium with or without tested compounds was added to 96-well plates. Another 50 μl of tested cancer cells (1×10^5 cells/ml) suspended in culture medium was dispensed into each well. The plates were incubated at 37° C. for 3 days. Afterward, plates were added with a 15 μl dye solution per well and incubated at 37° C. for 4 hours. To each well was then added 100 μl of the solubilization solution and the plates were incubated at 37° C. again until the contents in each well became a uniformly colored solution. The plates were measured at 570 nm by a Victor Reader (PerkinElmer).

[15] = tested on: gene expression in pancreatic carcinoid BON cells; experiment: RT-PCR / real-time PCR gene expression, BON cells; format: cell-based, Human
Experimental: RT-PCR, Real-Time PCR and PCR Array
Total RNAs were isolated from tumor cells as described in the kit protocol (Invitrogen, Carlsbad, Calif.).
As for real-time PCR, the primers are the same as described in Table 1. Real-time PCR assays were performed on a Bio-Rad iCycler (Hercules Calif.). Assays were set up using iScript™ cDNA Synthesis Kit and iQ™ SYBR Green Supermix (Bio-Rad). The cDNA synthesis was run for one cycle of 25° C. for 5 min, 42° C. for 30 min, 85° C. for 5 min, and held at 4° C. PCR reactions were run in 10 μl reactions. Each 10 μl reaction contained 4 μl template (either cDNA, genomic or plasmid DNA), 5 μl iQ SYBR Green Supermix (BioRad), and 0.25 μM each of the corresponding forward and reverse primers. PCR was further run under the conditions below: one cycle of 95° C. for 5 min for initial denaturation and 40 cycles of 95° C. for 30 s and 56° C. (SST), 57° C. (SSTR2) for 30 s for primer annealing and product elongation. For melt curve data collection and analysis, one cycle of 95° C. for 1 min and 55° C. for 1 min was run with an increase of the temperature at a rate of 0.5° C. from 55° C. to 95° C. The experiments were done by holding at 15° C. β-actin was used as internal control. Results were calculated using the comparative 2^−ΔΔCT methods as described in Livak et al., Methods, 2001, Vol. 25, pp. 402-408.
as §3, with “RT-PCR” for “RT-PCR, Real-Time PCR RT-PCR”

[16] = tested on: prostate cancer PC-3 cells; experiment: Cell proliferation assay (MTT), PC-3 cells; format: cell-based; conditions: single agents and combinations
Experimental: as §2

[17] = VPA treatment, confirmed by real-time PCR

Compound: CCCC(CCC)C(=O)O [VPA, valproic acid]
- cell morphological change, in words [1]: could induce morphological change
- cell morphological change, in words [2]: could induce morphological change
- cell growth suppression (MTT), in words [3]: displayed its anti-proliferative ability; also recorded: displays its anti-proliferation ability
- cell growth suppression (MTT), in words [4]: displayed its anti-proliferative ability; also recorded: displays its anti-proliferation ability
- cell growth suppression (MTT), in words [5]: displayed its anti-proliferative ability
- effect on expression of Notch receptors (RT-PCR), in words ([6]; VPA at serial doses, FIG. 52): significantly increase Notch1, Notch2, and Notch3, with a decrease of Notch4 expression
- effect on expression of SST, BN and PACAP receptors (RT-PCR), in words ([6]; VPA treatment, FIG. 55): SSTR2 (2.2-fold, confirmed by real-time PCR), BRS3, NMBR, and VPAC2 increased and SSTR3 and VPAC1 decreased, with no obvious change in the others
- increase of SSTR2 expression [6, 17]: 2.2 fold
- effect on expression of Notch receptors (RT-PCR), in words ([7]; VPA at serial doses, FIG. 52): decreased Notch1 and Notch2, whereas Notch3 and Notch4 were undetectable
- effect on expression of SST, BN and PACAP receptors (RT-PCR), in words ([7]; VPA treatment, FIG. 55): increased the expression of SSTR2 (19.8-fold, confirmed by real-time PCR), SSTR3, SSTR5, GRPR, BRS3, and VPAC1
- increase of SSTR2 expression [7, 17]: 19.8 fold
- cell growth suppression (MTT), in words [8]: displayed its anti-proliferative ability
- effect on expression of SST, BN and PACAP receptors (RT-PCR), in words ([9]; DMS53 cells, VPA treatment, FIG. 55): SSTR2 (5.4-fold, confirmed by real-time PCR), SSTR3, GRPR, and PAC1 increased, with no obvious change in SSTR1, SSTR2, VPAC1, NMBR, and BRS3
- increase of SSTR2 expression ([9]; DMS53 cells, VPA treatment, confirmed by real-time PCR): 5.4 fold
- effect on expression of Notch receptors (RT-PCR), in words ([9]; DMS-53 cells, VPA at serial doses, FIG. 52): increased the expression of Notch1 and Notch2, with no obvious change of expression in the others
- VPA-induced Notch1 increase ([9]; DMS-53 cells, real-time PCR): > 2 fold
- cell morphological change, in words [10]: no effect
- cell growth suppression (MTT), in words [11]: displayed its anti-proliferative ability; also recorded: displays its anti-proliferation ability
- cell growth suppression (MTT), in words [12]: displayed its anti-proliferative ability
- cell growth suppression (MTT), in words [13]: displayed its anti-proliferative ability; also recorded: suppressed growth; also recorded: displays its anti-proliferation ability
- cell growth suppression (MTT), in words [14]: displayed growth inhibition; also recorded: induced growth arrest; also recorded: suppressed growth
- effect on expression of Notch receptors (RT-PCR), in words ([15]; VPA at serial doses, FIG. 52): increased the expression of Notch1, Notch2, and Notch3; Notch4 was undetectable
- induction of SSTR2 expression [15, 17]: 25 fold
- effect on expression of SST, BN and PACAP receptors (RT-PCR), in words ([15]; VPA treatment, dose-dependent, FIG. 55): induced the expression of SSTR2 (25-fold, confirmed by real-time PCR), SSTR4, BRS3, GRPR, and VPAC2 and suppressed SSTR1
- slight decrease of SSTR5 expression ([15]; VPA treatment, real-time PCR): 0.9 fold
- effect on Notch1, SST, and SSTR2 expression, in words ([15]; different concentrations of VPA, beta-actin as control, FIG. 17): activated expression of Notch1, SST, and SSTR2
- cell growth suppression (MTT), in words [16]: displayed its anti-proliferative ability; also recorded: displays its anti-proliferation ability
